Measurements: patent US6413967B1, “Inhibition of novel calcium entry pathway in electrically non-excitable cells acting as an anti-proliferative therapy” (The University of Virginia Patents Foundation, priority 1995, dated 2002)

Columns and labels:
Assay type in all cases: cell-based, human
[1] = tested on: Ca^2+ entry pathway in Jurkat cells; experiment: thapsigargin-stimulated Ca2+ entry measured with Ca2+-sensitive dyes (indo-1, fluo-3)
Procedure: Lymphocytes were suspended in culture medium at 37° C. for 1 h in the presence of 1 μM of the Ca^2+ indicator dye indo-1 /AM. Cells were washed twice in buffer A (140 mM NaCl, 3 mM KCl, 1 mM CaCl2, 1 mM MgCl2, 0.1% D-glucose, 1% FBS, 10 mM HEPES, pH 7.4) and were suspended at a final concentration of 1×10^6 cells/ml in buffer A. The excitation wavelength was 340 nm and emission was monitored at 398 nm in an SLM 8000 spectrofluorometer (SLM/Aminco, Urbana, Ill.), with the temperature maintained at 37° C. Data are plotted as relative fluorescence intensity at 398 nm as a measure of [Ca^2+]i. For FIG. 7, indo-1 emission was monitored at 398 nm and 480 nm and [Ca^2+]i was determined as described previously (Gray et al, J. Immunol (1987) 138:63; Haverstick et al, Mol. Biol. Cell (1993) 4:173).
Jurkat cells were loaded with indo-1/AM as described above. The excitation wavelength was 340 nm and emission was measured at 441 nm. The fluorescence of indo-1 at 441 nm is insensitive to changes in [Ca^2+]i (Sage et al, Biochem. J. (1989) 258:923) and is plotted as relative fluorescence intensity.
Because amiloride interferes with the fluorescence of indo-1 (Wacholtz et al, J. Immunol. (1992) 149:1912), fluo-3 was used to monitor [Ca^2+]i in the presence of amiloride. Jurkat cells were suspended in culture medium at 37° C. for 1 h in the presence of 1 μM fluo-3/AM and 1 mM probenecid to decrease dye leakage (DiVirgilio et al, Methods Cell Biol. (1989) 31:453). After two washes in buffer A, cells were suspended at a concentration of 1×10^6 cells/ml in buffer A with 1 mM probenecid and were maintained in a cuvette at 37° C. The excitation wavelength was 506 nm and the emission was monitored at 526 nm. Data are presented sa relative fluorescence intensity at 526 nm.

Jurkat T cells = experiment: Jurkat cell proliferation, tetrazolium dye; settings: 48 hours
Procedure: The effect of various drugs on the proliferation of Jurkat T cells, MDA-468 human breast cancer cells and PC3 human prostate cancer cells was determined by incubating the cells with the indicated concentrations of drug for 48 hours. The number of viable cells remaining at the end of the incubation period was evaluated using the procedure outlined in Example 4.
Cells are plated in triplicate in a 96-well flat-bottomed plate (Jurkat: 5e4 cells/well in RPMI-1640 plus 5% fbs; MDA468: 2.5e4 per well in DMEM plus 5% fbs and 11 μg/ml insulin) in the absence (control) or presence of drug at 3, 10, 30, and 100 μM. An additional control of 100 μM drug in RPMI-1640 plus 5% fbs or DMEM plus 5% fbs and 11 μg/Ml insulin with no cells is included with each run to control for possible drug interactions with the dye. The plate is then placed in a 5% CO2 37° C. incubator for 44 to 48 hours. 20 μl of dye solution containing a tetrazolium dye (3-(4,5-dimethylthiazol-2-yl)-5-(3-carboxymethoxyphenyl)-2-(4-sulfophenyl)-2H-tetrazolium, Owen's reagent) plus coupling reagent (phenazine methosulfate) is added to each well, the plate is returned to the incubator, and the absorbance at 490 nm is read using an ELISA plate reader 3 to 4 h (Jurkat cells) or 2 to 3 h (MDA-468 cells) later. All data are presented as percent of control (no drug addition). With this protocol, it is possible to determine the effect of 5 drugs at 4 concentrations in a single 96-well plate as outlined below: […]

[2] = tested on: [Ca^2+]i in Jurkat T cells; experiment: receptor-stimulated Ca2+ influx in Jurkat T cells (anti-CD3 mAb OKT3); settings: effect the same post- and pre- T cell receptor stimulation; 10 or 30 μM drug
Procedure: Initially, all drugs are screened using Jurkat T cells incubated with indo-1/AM as outlined below. In the event that there is an effect of the drug on the maximum [Ca^2+]i reached following treatment of the cells with the anti-CD3 mAb […], the drug is evaluated for any effects on the spectral characteristics of indo-1 as outlined in Haverstick and Gray, Mol. Biol. Cell (1993) 4:173. If there is an effect of the drug on the spectral characteristics of indo-1 , the drug is further examined for spectral effects on the combination of fura-red and fluo-3. If there is no effect of the drug on the fura-red/fluo-3 combination, the drug is examined for effects on the maximum [Ca^2+]i reached following OKT3 treatment of cells incubated with 5 μM fura-red and […] as outlined below.
Jurkat cells are incubated in RPMI-1640 plus 5% fbs in the presence of the acetoxymethyl ester of either indo-1 (1 μM) or the combination of fura-red (5 μM) with fluo-3 (1 μM) for one hour at 37° C. Cells are washed three times in buffer A [[…] 4-(2-hydroxyethyl)-1-piperazine ethanesulfonic acid (HEPES), pH 7.4, 3 MM KCl, 1 mM MgCl2, 1 mM CaCl2, 140 mM NaCl, 0.1% glucose] containing 1% fbs and suspended to a final concentration of 1×10^6/ml. Cells are then placed in the 37° C. jacketed cell holder of the SLM 8000C. Antigen receptor engagement is mimicked by the addition of the anti-CD3 monoclonal antibody OKT3 (Gray et al, J. Exp. Med. (1988) 167:1963; Gray et al, J. Immunol. 142:1631). The effect of drug added prior to receptor stimulation or at the plateau phase of Ca^2+ entry is determined as follows:
Prior drug: 10 or 30 μM drug @ 30 seconds, 1 μg/ml OKT3 at 90 seconds
Post drug: 1 μg/ml OKT3 at 30 second, 10 or 30 μM drug @ 120 seconds

## CC(Cc1ccc(O)c(O)c1)C(C)Cc1ccc(O)c(O)c1 (stereo not shown) [NDGA, 4,4′-(2,3-dimethyl-1,4-butanediyl)bis[1,2-benzenediol]]
[1]; 300 nM thapsigargin, amiloride 100 μM (fluo-3), Ni^2+ 1 mM, NDGA 10 μM (indo-1)
  effect on thapsigargin-stimulated Ca^2+ entry: inhibited Ca^2+ entry
[1]; Homo sapiens, indo-1, n=10, read-out: IC50 for blockade of thapsigargin-stimulated Ca^2+ entry
  IC50: 5 µM
Jurkat T cells
  T cell PROLIF: ↓
[2]
  T cell [Ca^2+]i: ↓
